Data: article PMC5578959, “Selective LRRK2 kinase inhibition reduces phosphorylation of endogenous Rab10 and Rab12 in human peripheral mononuclear blood cells” (Scientific Reports, 2017)

Key:
Experiment in all cases: KiNativ profiling in human PBMCs
Assay type in all cases: binding
[1] = test system: T1, TAK1; details: Lys2
T1 construct: purchased ActivX Technologies (KiNativ)
Method in brief: (§1)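 After live treatment with either 0.1 µM or 1 µM compound, human peripheral blood mononuclear cells underwent KiNativ kinase profiling to compare engagement and selectivity.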

[2] = test system: T2, PIP5K3; details: ATP
T2 construct: purchased ActivX Technologies (KiNativ)
Method in brief: as §1

[3] = test system: T3, MAP2K6
T3 construct: purchased ActivX Technologies (KiNativ)
Method in brief: as §1

[4] = test system: T4, HPK1
T4 construct: purchased ActivX Technologies (KiNativ)
Method in brief: as §1

[5] = test system: T5, p70S6K; details: Lys2
T5 construct: purchased ActivX Technologies (KiNativ)
Method in brief: as §1

[6] = test system: Wnk1,Wnk2; details: ATP Loop
Method in brief: as §1

[7] = test system: T6, RSK1 domain1
T6 construct: RSK1 domain1; purchased ActivX Technologies (KiNativ)
Method in brief: as §1

[8] = test system: T7, BTK
T7 construct: purchased ActivX Technologies (KiNativ)
Method in brief: as §1

[9] = test system: T8, MAP3K5; details: Lys2
T8 construct: purchased ActivX Technologies (KiNativ)
Method in brief: as §1

[10] = test system: T9, SYK
T9 construct: purchased ActivX Technologies (KiNativ)
Method in brief: as §1

[11] = test system: T10, PITSLRE; details: Lys2
T10 construct: purchased ActivX Technologies (KiNativ)
Method in brief: as §1

[12] = test system: T11, LATS2
T11 construct: purchased ActivX Technologies (KiNativ)
Method in brief: as §1

[13] = test system: T12, DGKA; details: ATP
T12 construct: purchased ActivX Technologies (KiNativ)
Method in brief: as §1

[14] = test system: T13, MAP3K2; details: Lys1
T13 construct: purchased ActivX Technologies (KiNativ)
Method in brief: as §1

[15] = test system: T14, JAK1 domain2
T14 construct: JAK1 domain2; purchased ActivX Technologies (KiNativ)
Method in brief: as §1

[16] = test system: CDK11,CDK8; details: Lys2
Method in brief: as §1

[17] = test system: T15, PI4KB; details: ATP
T15 construct: purchased ActivX Technologies (KiNativ)
Method in brief: as §1

[18] = test system: T16, GPRK6; details: Lys2
T16 construct: purchased ActivX Technologies (KiNativ)
Method in brief: as §1

[19] = test system: T17, PRPK; details: ATP Loop
T17 construct: purchased ActivX Technologies (KiNativ)
Method in brief: as §1

[20] = test system: T18, DNAPK; details: ATP
T18 construct: purchased ActivX Technologies (KiNativ)
Method in brief: as §1

[21] = test system: T19, CDK7; details: Lys2
T19 construct: purchased ActivX Technologies (KiNativ)
Method in brief: as §1

[22] = test system: MAP2K1,MAP2K2; details: Lys2
Method in brief: as §1

[23] = test system: JNK1,JNK2,JNK3; details: Lys2
Method in brief: as §1

[24] = test system: T20, PFTAIRE1
T20 construct: purchased ActivX Technologies (KiNativ)
Method in brief: as §1

[25] = test system: Wnk1,Wnk2,Wnk4; details: Activation Loop
Method in brief: as §1

[26] = test system: T21, RSKL1 domain1; details: ATP
T21 construct: RSKL1 domain1; purchased ActivX Technologies (KiNativ)
Method in brief: as §1

[27] = test system: T22, p38a
T22 construct: purchased ActivX Technologies (KiNativ)
Method in brief: as §1

[28] = test system: T23, TLK1
T23 construct: purchased ActivX Technologies (KiNativ)
Method in brief: as §1

[29] = test system: T24, SLK
T24 construct: purchased ActivX Technologies (KiNativ)
Method in brief: as §1

[30] = test system: T25, NDR1
T25 construct: purchased ActivX Technologies (KiNativ)
Method in brief: as §1

[31] = test system: T26, AKT1; details: ATP Loop
T26 construct: purchased ActivX Technologies (KiNativ)
Method in brief: as §1

[32] = test system: T27, HCK
T27 construct: purchased ActivX Technologies (KiNativ)
Method in brief: as §1

[33] = test system: T28, ZAK; details: Lys1
T28 construct: purchased ActivX Technologies (KiNativ)
Method in brief: as §1

[34] = test system: T29, MARK2; details: Lys1
T29 construct: purchased ActivX Technologies (KiNativ)
Method in brief: as §1

Cn1cc(-c2c[nH]c3ncnc(N4CCOCC4)c23)cc1C#N [PFE-360]
% Inhibition ([1]; 0.1µM): -3.5% | % Inhibition ([1]; 1µM): -20% | % Inhibition ([2]; 0.1µM): -6.1% | % Inhibition ([2]; 1µM): -15.9% | % Inhibition ([3]; 0.1µM, Lys1): -18% | % Inhibition ([3]; 0.1µM, Lys2): 14.6% | % Inhibition ([3]; 1µM, Lys1): 1.8% | % Inhibition ([3]; 1µM, Lys2): 6.2% | % Inhibition ([4]; 0.1µM, Lys1): -22.3% | % Inhibition ([4]; 0.1µM, Lys2): 1.2% | % Inhibition ([4]; 1µM, Lys1): 7.8% | % Inhibition ([4]; 1µM, Lys2): 0% | % Inhibition ([5]; 0.1µM): -16.9% | % Inhibition ([5]; 1µM): 8.5% | % Inhibition ([6]; 0.1µM): -5.4% | % Inhibition ([6]; 1µM): -15.3% | % Inhibition ([7]; 0.1µM, Activation Loop): 4.6% | % Inhibition ([7]; 0.1µM, Lys1): -11.3% | % Inhibition ([7]; 0.1µM, Lys2): -4.4% | % Inhibition ([7]; 1µM, Activation Loop): 1.1% | % Inhibition ([7]; 1µM, Lys1): 3.4% | % Inhibition ([7]; 1µM, Lys2): 10.9% | % Inhibition ([8]; 0.1µM, Activation Loop): -5.6% | % Inhibition ([8]; 0.1µM, Lys1): -12.3% | % Inhibition ([8]; 1µM, Activation Loop): -15.5% | % Inhibition ([8]; 1µM, Lys1): 2.1% | % Inhibition ([9]; 0.1µM): 44.3% | % Inhibition ([9]; 1µM): 60.3% | % Inhibition ([10]; 0.1µM, Activation Loop): 1.9% | % Inhibition ([10]; 0.1µM, Lys1): 0.1% | % Inhibition ([10]; 1µM, Activation Loop): -4.4% | % Inhibition ([10]; 1µM, Lys1): -13% | % Inhibition ([11]; 0.1µM): -3.8% | % Inhibition ([11]; 1µM): -18.7% | % Inhibition ([12]; 0.1µM, Lys1): -10.2% | % Inhibition ([12]; 0.1µM, Lys2): 5.5% | % Inhibition ([12]; 1µM, Lys1): 16.6% | % Inhibition ([12]; 1µM, Lys2): -0.4% | % Inhibition ([13]; 0.1µM): 1.4% | % Inhibition ([13]; 1µM): -4.5% | % Inhibition ([14]; 0.1µM): -14.1% | % Inhibition ([14]; 1µM): -24.4% | % Inhibition ([15]; 0.1µM, Activation Loop): -1.9% | % Inhibition ([15]; 0.1µM, Lys1): 0% | % Inhibition ([15]; 1µM, Activation Loop): -10.1% | % Inhibition ([15]; 1µM, Lys1): -13.8% | % Inhibition ([16]; 0.1µM): -9.1% | % Inhibition ([16]; 1µM): 9.6% | % Inhibition ([17]; 0.1µM, peptide LLSVIVKCGDDLRQELLAFQVLK): -14.7% | % Inhibition ([17]; 0.1µM, peptide VPHTQAVVLNSKDK): 3.6% | % Inhibition ([17]; 1µM, peptide LLSVIVKCGDDLRQELLAFQVLK): -10.6% | % Inhibition ([17]; 1µM, peptide VPHTQAVVLNSKDK): -12.4% | % Inhibition ([18]; 0.1µM): 5.7% | % Inhibition ([18]; 1µM): 0.4% | % Inhibition ([19]; 0.1µM): 2.6% | % Inhibition ([19]; 1µM): 8.1% | % Inhibition ([20]; 0.1µM, peptide EHPFLVKGGEDLR): 0.3% | % Inhibition ([20]; 0.1µM, peptide KGGSWIQEINVAEK): -1.9% | % Inhibition ([20]; 1µM, peptide EHPFLVKGGEDLR): -12.5% | % Inhibition ([20]; 1µM, peptide KGGSWIQEINVAEK): -4.9% | % Inhibition ([21]; 0.1µM): 5% | % Inhibition ([21]; 1µM): -4.6% | % Inhibition ([22]; 0.1µM): 13.4% | % Inhibition ([22]; 1µM): 12.9% | % Inhibition ([23]; 0.1µM): 2.1% | % Inhibition ([23]; 1µM): -12% | % Inhibition ([24]; 0.1µM, Lys1): 1.9% | % Inhibition ([24]; 0.1µM, Lys2): -4% | % Inhibition ([24]; 1µM, Lys1): -2% | % Inhibition ([24]; 1µM, Lys2): -1.5% | % Inhibition ([25]; 0.1µM): 4.7% | % Inhibition ([25]; 1µM): 2.2% | % Inhibition ([26]; 0.1µM): -38% | % Inhibition ([26]; 1µM): 7.3% | % Inhibition ([27]; 0.1µM, Lys2): 7.1% | % Inhibition ([27]; 0.1µM, Protein Kinase Domain): 7.5% | % Inhibition ([27]; 1µM, Lys2): -2.9% | % Inhibition ([27]; 1µM, Protein Kinase Domain): 1% | % Inhibition ([28]; 0.1µM, Lys1): -0.5% | % Inhibition ([28]; 0.1µM, Lys2): 0% | % Inhibition ([28]; 1µM, Lys1): 3.9% | % Inhibition ([28]; 1µM, Lys2): -13.2% | % Inhibition ([29]; 0.1µM, Lys1): 3.8% | % Inhibition ([29]; 0.1µM, Lys2): 4.8% | % Inhibition ([29]; 1µM, Lys1): 22.3% | % Inhibition ([29]; 1µM, Lys2): -8.4% | % Inhibition ([30]; 0.1µM, Lys1): -16.4% | % Inhibition ([30]; 0.1µM, Lys2): 5.8% | % Inhibition ([30]; 1µM, Lys1): -6% | % Inhibition ([30]; 1µM, Lys2): 1.6% | % Inhibition ([31]; 0.1µM): -6.3% | % Inhibition ([31]; 1µM): -3.2% | % Inhibition ([32]; 0.1µM, Activation Loop): -0.8% | % Inhibition ([32]; 0.1µM, Lys1): -20.8% | % Inhibition ([32]; 1µM, Activation Loop): -4.1% | % Inhibition ([32]; 1µM, Lys1): 12.3% | % Inhibition ([33]; 0.1µM): -12.2% | % Inhibition ([33]; 1µM): -10.2% | % Inhibition ([34]; 0.1µM): -8.9% | % Inhibition ([34]; 1µM): 2.3%
